Measurements as given in the NIST ThermoML archive (doi:10.1021/je3002255).
Numbers after ± are expanded uncertainties. Each block holds one compound with its values, some of them ahead of it.

Conditions: Liquid, Ebulliometric method (Recirculating still)

- vapor or sublimation pressure (342.87 K): 60 ± 1.4 kPa
- vapor or sublimation pressure (349.6 K): 80 ± 1.8 kPa
- vapor or sublimation pressure (355.06 K): 100 ± 2.4 kPa
SMILES: CC(C)O [propan-2-ol]

- vapor or sublimation pressure (406.13 K): 60 ± 1.4 kPa
- vapor or sublimation pressure (406.15 K): 60 ± 1.4 kPa
- vapor or sublimation pressure (415.28 K): 80 ± 2 kPa
- vapor or sublimation pressure (415.3 K): 80 ± 2 kPa
- vapor or sublimation pressure (422.73 K): 100 ± 2.5 kPa
- vapor or sublimation pressure (422.75 K): 100 ± 2.5 kPa
SMILES: CCCOCCO [2-propoxyethanol]

- vapor or sublimation pressure (359.26 K): 60 ± 1.4 kPa
- vapor or sublimation pressure (366.45 K): 80 ± 1.8 kPa
- vapor or sublimation pressure (372.21 K): 100 ± 2.4 kPa
SMILES: CCC(C)O (configuration not stated) [butan-2-ol]
